Experimental data as given in the CheMixHub viscosity set.

Assay: xn = mol fraction of the nth substance listed

Nc1ccccc1 + CC(C)(C)O
303 K, 101.33 kPa
Conditions | viscosity [mPa·s]
x1 = 0.1 | 2.851
x1 = 0.2 | 2.363
x1 = 0.3 | 2.307
x1 = 0.4 | 2.218
x1 = 0.5 | 2.257
x1 = 0.6 | 2.305
x1 = 0.7 | 2.407
x1 = 0.8 | 2.524
x1 = 0.9 | 2.766

Nc1ccccc1 + O=[N+]([O-])c1ccccc1
298.15 K, 101 kPa
Conditions | viscosity [mPa·s]
x2 = 0.1216 | 3.163
x2 = 0.2269 | 2.741
x2 = 0.4 | 2.328
x2 = 0.5602 | 2.082
x2 = 0.6878 | 1.949
x2 = 0.8353 | 1.889
x2 = 0.9171 | 1.836

CCCCOC(=O)c1ccccc1 + CCCCCCCCCCCCCC
101 kPa
Conditions | viscosity [mPa·s]
298.15 K, x2 = 0.0346 | 2.623
298.15 K, x2 = 0.0683 | 2.562
298.15 K, x2 = 0.1072 | 2.49
298.15 K, x2 = 0.1432 | 2.436
298.15 K, x2 = 0.1795 | 2.38
298.15 K, x2 = 0.2175 | 2.328
298.15 K, x2 = 0.2506 | 2.282
298.15 K, x2 = 0.2944 | 2.226
298.15 K, x2 = 0.3362 | 2.186
298.15 K, x2 = 0.3761 | 2.154
298.15 K, x2 = 0.4036 | 2.128
298.15 K, x2 = 0.472 | 2.08
298.15 K, x2 = 0.5203 | 2.055
298.15 K, x2 = 0.5754 | 2.03
298.15 K, x2 = 0.6238 | 2.015
298.15 K, x2 = 0.6833 | 1.995
298.15 K, x2 = 0.7394 | 1.989
298.15 K, x2 = 0.8084 | 1.99
298.15 K, x2 = 0.8738 | 2.005
308.15 K, x2 = 0.0474 | 2.117
308.15 K, x2 = 0.0876 | 2.049
308.15 K, x2 = 0.1255 | 1.995
308.15 K, x2 = 0.1576 | 1.956
308.15 K, x2 = 0.1932 | 1.916
308.15 K, x2 = 0.2315 | 1.876
308.15 K, x2 = 0.2692 | 1.842
308.15 K, x2 = 0.3166 | 1.806
308.15 K, x2 = 0.3536 | 1.783
308.15 K, x2 = 0.3967 | 1.758
308.15 K, x2 = 0.4455 | 1.735
308.15 K, x2 = 0.4967 | 1.714
308.15 K, x2 = 0.5574 | 1.696
308.15 K, x2 = 0.5991 | 1.684
308.15 K, x2 = 0.6454 | 1.675
308.15 K, x2 = 0.7094 | 1.667
308.15 K, x2 = 0.7691 | 1.664
308.15 K, x2 = 0.8229 | 1.665
308.15 K, x2 = 0.9132 | 1.68
318.15 K, x2 = 0.0221 | 1.779
318.15 K, x2 = 0.0602 | 1.728
318.15 K, x2 = 0.0938 | 1.687
318.15 K, x2 = 0.1331 | 1.646
318.15 K, x2 = 0.1693 | 1.612
318.15 K, x2 = 0.2101 | 1.576
318.15 K, x2 = 0.249 | 1.546
318.15 K, x2 = 0.2933 | 1.516
318.15 K, x2 = 0.3356 | 1.491
318.15 K, x2 = 0.3836 | 1.467
318.15 K, x2 = 0.4273 | 1.448
318.15 K, x2 = 0.4797 | 1.428
318.15 K, x2 = 0.5267 | 1.413
318.15 K, x2 = 0.5825 | 1.399
318.15 K, x2 = 0.6341 | 1.388
318.15 K, x2 = 0.6948 | 1.38
318.15 K, x2 = 0.7506 | 1.377
318.15 K, x2 = 0.8156 | 1.375
318.15 K, x2 = 0.8778 | 1.381

CCCCOC(=O)c1ccccc1 + CCCCCCCCCC
101 kPa
Conditions | viscosity [mPa·s]
298.15 K, x2 = 0.0918 | 2.334
298.15 K, x2 = 0.1358 | 2.183
298.15 K, x2 = 0.1792 | 2.041
298.15 K, x2 = 0.2262 | 1.896
298.15 K, x2 = 0.2664 | 1.788
298.15 K, x2 = 0.3097 | 1.678
298.15 K, x2 = 0.3591 | 1.567
298.15 K, x2 = 0.4089 | 1.47
298.15 K, x2 = 0.4486 | 1.401
298.15 K, x2 = 0.4948 | 1.329
298.15 K, x2 = 0.5503 | 1.25
298.15 K, x2 = 0.5873 | 1.204
298.15 K, x2 = 0.6281 | 1.153
298.15 K, x2 = 0.6957 | 1.077
298.15 K, x2 = 0.741 | 1.032
298.15 K, x2 = 0.7899 | 0.988
298.15 K, x2 = 0.8403 | 0.946
298.15 K, x2 = 0.8939 | 0.908
298.15 K, x2 = 0.9566 | 0.87
308.15 K, x2 = 0.0669 | 1.981
308.15 K, x2 = 0.1091 | 1.855
308.15 K, x2 = 0.1542 | 1.738
308.15 K, x2 = 0.1965 | 1.637
308.15 K, x2 = 0.245 | 1.534
308.15 K, x2 = 0.2934 | 1.443
308.15 K, x2 = 0.3293 | 1.381
308.15 K, x2 = 0.3765 | 1.306
308.15 K, x2 = 0.4326 | 1.224
308.15 K, x2 = 0.4647 | 1.182
308.15 K, x2 = 0.5148 | 1.12
308.15 K, x2 = 0.563 | 1.063
308.15 K, x2 = 0.6162 | 1.008
308.15 K, x2 = 0.6547 | 0.972
308.15 K, x2 = 0.7081 | 0.924
308.15 K, x2 = 0.7512 | 0.891
308.15 K, x2 = 0.8136 | 0.846
308.15 K, x2 = 0.8573 | 0.818
308.15 K, x2 = 0.9215 | 0.783
318.15 K, x2 = 0.0724 | 1.636
318.15 K, x2 = 0.0793 | 1.618
318.15 K, x2 = 0.1214 | 1.527
318.15 K, x2 = 0.1698 | 1.43
318.15 K, x2 = 0.2143 | 1.349
318.15 K, x2 = 0.2625 | 1.268
318.15 K, x2 = 0.3071 | 1.201
318.15 K, x2 = 0.3576 | 1.129
318.15 K, x2 = 0.4024 | 1.073
318.15 K, x2 = 0.4543 | 1.013
318.15 K, x2 = 0.4998 | 0.966
318.15 K, x2 = 0.551 | 0.917
318.15 K, x2 = 0.5985 | 0.876
318.15 K, x2 = 0.6498 | 0.834
318.15 K, x2 = 0.6927 | 0.804
318.15 K, x2 = 0.7509 | 0.764
318.15 K, x2 = 0.8026 | 0.733
318.15 K, x2 = 0.901 | 0.682
318.15 K, x2 = 0.9265 | 0.673
